Reference: article PMC6627374, “Effects of the Pentapeptide P33 on Memory and Synaptic Plasticity in APP/PS1 Transgenic Mice: A Novel Mechanism Presenting the Protein Fe65 as a Target” (International Journal of Molecular Sciences, 2019)
Entries after “also recorded” stand apart in the source; their conditions may differ. Where a SMILES comes first, the peptide text is derived from it.

Tests used:
PSD95 = experiment: Western blot, PSD95 level; format: in vivo, mouse; details: APP/PS1 mice; 5 mg∙kg^−1 i.p., five days per week, six months
Method: (§1) For this study, three-month-old male and female WT and APP/PS1 mice (n = 37) were used. Four groups were defined: WT-vehicle (physiological saline) (male n = 4; female n = 6), WT-P33 (male n = 6; female n = 5), APP/PS1-vehicle (male n = 3; female n = 5), and APP/PS1-P33 (male n = 6; female n = 2). Animals were subjected to intraperitoneal (i.p.) injections of P33 (5 mg∙kg^−1) for five days per week, over a course of six months. The mice were kept in groups under constant temperature (23 ± 0.5 °C), lighting (12-h/12-h light/dark cycle, lights on at 7:00 a.m.), and humidity (~50%). Standard mouse chow and tap water were supplied ad libitum. All behavioral experiments were performed in the light period. […]
(§2) Protein samples, identically prepared as for ELISA, (20 μg/lane) were separated on a 15% SDS-polyacrylamide gel (80 V, 20 min at RT; than 130 V, 60 min at RT) or on a 4–12% NuPAGE® Bis-Tris Gel (Thermo Fischer Scientific, Waltham, MA, USA, 200V, 30 min at RT) and transferred to a nitrocellulose membrane (Whatman, Maidstone, UK, 450 mA, 90 min at 4 °C). […] Membranes were scanned with a Bio-Rad Molecular Imager® ChemiDoc™ XRS+Imaging System (Bio-Rad Laboratories, Hercules, CA, USA) and evaluated with the Image Lab 4.0 software.
(§3) The results of spine density and immunohistochemistry experiments were calculated with one-way ANOVA followed by Fisher’s LSD post hoc tests. […]

human APP = experiment: Western blot, APP level in brain (6E10); format: in vivo, human APP in APP/PS1 transgenic mice; details: APP/PS1 mice; 5 mg∙kg^−1 i.p., five days per week, six months; HC and CTX
Method: (§4) For this study, three-month-old male and female WT and APP/PS1 mice (n = 37) were used. Four groups were defined: WT-vehicle (physiological saline) (male n = 4; female n = 6), WT-P33 (male n = 6; female n = 5), APP/PS1-vehicle (male n = 3; female n = 5), and APP/PS1-P33 (male n = 6; female n = 2). Animals were subjected to intraperitoneal (i.p.) injections of P33 (5 mg∙kg^−1) for five days per week, over a course of six months. The mice were kept in groups under constant temperature (23 ± 0.5 °C), lighting (12-h/12-h light/dark cycle, lights on at 7:00 a.m.), and humidity (~50%). Standard mouse chow and tap water were supplied ad libitum. All behavioral experiments were performed in the light period. Handling was done daily at the same time.
(§5) Nine-month-old mice (three animals per group) were euthanized via cervical dislocation. […] To quantify the level of Aβ in the mice, we used a sandwich ELISA Kit (Innotest Amyloid-[…]) from Innogenetics (Gent, Belgium), following the instructions of the manufacturer. The absorbance values were measured at 450 nm on a 96-well plate reader (NOVOstar OPTIMA, BMG Labtech, Offenburg, Germany). […]
(§6) The results of spine density and immunohistochemistry experiments were calculated with one-way ANOVA followed by Fisher’s LSD post hoc tests. […] Data were analyzed with SPSS (IBM SPSS Statistics 24), and were expressed as the mean ± standard error of the mean (SEM). […]

pT^668-APP = experiment: Western blot, pT^668-APP level in brain; format: in vivo, mouse; details: 5 mg∙kg^−1 i.p., five days per week, six months; HC and CTX
Method: as §4, §5, §6

synaptophysin (SYN) = experiment: Western blot, synaptophysin (SYN) level; format: in vivo, mouse; details: four groups WT/APP/PS1, vehicle/P33; 5 mg∙kg^−1 i.p., six months
Method: as §1, §2, §3

[1] = test system: Pin1-WW domain (WW domain of Pin1); experiment: ITC binding to Pin1-WW; details: 310 K, PBS pH 7.4, Pin1-WW 81.4 μM in cell, P33 in syringe
Method: Synthesis of acetyl-Fe65-WW, acetyl-Pin1-WW, and the control PPPPP (structures involved in Figure 2) was carried out on a Rink Amide AM (0.3 mmol∙g^−1) resin using Fmoc chemistry and activation with HATU in the presence of DIPEA. Cleavage was achieved by a treatment with TFA/H2O/triisopropylsilane/1,4-dithio-DL-threitol/phenol (90:5:3:1:1) at room temperature (RT). TFA was removed in vacuo, the peptides were then precipitated using cold, dry diethyl-ether, dissolved in ACN/H2O and lyophilized.
Isothermal titrations were performed using a Microcal VP-ITC (Malvern Instruments, Malvern, UK) microcalorimeter. Binding experiments were carried out in degassed phosphate-buffered saline (PBS) at pH 7.4. The concentrations of Fe65-WW and Pin1-WW were normalized for the peptide contents. In one titration experiment, 10-μL portions of the ligand-containing solution (P33 or PPPPP) were injected from a computer-controlled 300-μL microsyringe at intervals of 300 s into the solution of the WW domain (Fe65-WW or Pin1-WW), dissolved in the same buffer as for the ligand. The rev of the microsyringe was set to 307 rpm. […] Control experiments were performed by injecting P33 or PPPPP into the cell containing plain buffer without the WW domain, with results achieved via subtracting the dilution heats from those measured in the presence of the WW domain.

Fe65 = experiment: Western blot, Fe65 level in brain; format: in vivo, mouse; details: APP/PS1 mice; 5 mg∙kg^−1 i.p., five days per week, six months; HC and CTX
Method: as §4, §5, §6

`C[C@@H](N)C(=O)N1CCC[C@@H]1C(=O)N[C@H](C)C(=O)N1CCC[C@@H]1C(=O)N[C@H](CCC(=O)O)C(N)=O` [P33] (HELM PEPTIDE1{[dA].[dP].[dA].[dP].[dE].[am]}$$$$V2.0) was tested, and the “PSD95 level, effect of P33 (in words)” value (PSD95) was “could be restored by applying P33 on APP/PS1 mice”, the “APP level, effect of P33 (in words)” value (human APP) was “did not change with the P33-treatment” and the “pT^668-APP level, effect of P33 (in words)” value (pT^668-APP) was “had no significant effect on the pT^668-APP level”. For the same compound, the “SYN level, effect (in words)” value (synaptophysin (SYN)) was “significant differences were not found between the groups”, the “binding to Pin1-WW (in words)” value [1] was “no considerable binding; also recorded: no detectable binding to the Pin1-WW could be observed” and the “Fe65 level, effect of P33 (in words)” value (Fe65) was “could not be considerably changed by the treatment with P33”.
